Source: article PMC5218480 (PLoS ONE, 2017)

System: MV-4-11 cells
Test: Gene expression microarray analysis (Affymetrix PrimeView) and GSEA
Type: cell-based, human
Design: RFU PODN (11730768_x_at) / Fold change /veh PODN (11730768_x_at) / RFU LINC00158 (11744669_a_at) / Fold change /veh LINC00158 (11744669_a_at) / RFU DUSP10 (11751237_a_at) / Fold change /veh DUSP10 (11751237_a_at) / RFU ID3 (11757404_x_at) / Fold change /veh ID3 (11757404_x_at) / RFU PLEKHG5 (11737974_s_at) / Fold change /veh PLEKHG5 (11737974_s_at) / RFU LRRC4B (11730491_at) / Fold change /veh LRRC4B (11730491_at) / RFU GIMAP4 (11747438_a_at) / Fold change /veh GIMAP4 (11747438_a_at) / RFU KRT8 (11758183_x_at) / Fold change /veh KRT8 (11758183_x_at) / RFU CNN1 (11734310_a_at) / Fold change /veh CNN1 (11734310_a_at) / RFU VPS37D (11726825_at) / Fold change /veh VPS37D (11726825_at) / RFU C10orf10 (11716522_x_at) / Fold change /veh C10orf10 (11716522_x_at) / RFU KIR2DL2 /// KIR2DL4 /// KIR2DL5A /// KIR2DL5B /// KIR2DS1 /// KIR2DS2 /// KIR2DS3 /// KIR2DS4 /// KIR3DL3 /// KIR3DL3 /// KIR3DS1 (11738374_at) / Fold change /veh KIR2DL2 /// KIR2DL4 /// KIR2DL5A /// KIR2DL5B /// KIR2DS1 /// KIR2DS2 /// KIR2DS3 /// KIR2DS4 /// KIR3DL3 /// KIR3DL3 /// KIR3DS1 (11738374_at) / RFU C1QL1 (11718748_at) / Fold change /veh C1QL1 (11718748_at) / RFU TMPRSS4 (11747572_a_at) / Fold change /veh TMPRSS4 (11747572_a_at) / RFU HAMP (11756126_x_at) / Fold change /veh HAMP (11756126_x_at) / RFU RNFT2 (11725882_a_at) / Fold change /veh RNFT2 (11725882_a_at) / RFU NR4A2 (11747474_a_at) / Fold change /veh NR4A2 (11747474_a_at) / RFU ABCC12 (11746883_a_at) / Fold change /veh ABCC12 (11746883_a_at) / RFU TMEM136 (11760407_x_at) / Fold change /veh TMEM136 (11760407_x_at) / RFU CLDN22 /// WWC2 (11732394_at) / Fold change /veh CLDN22 /// WWC2 (11732394_at) / RFU HLA-DPB1 (11760878_x_at) / Fold change /veh HLA-DPB1 (11760878_x_at) / RFU SPINT1 (11716480_a_at) / Fold change /veh SPINT1 (11716480_a_at) / RFU GAP43 (11754022_s_at) / Fold change /veh GAP43 (11754022_s_at) / RFU A4GNT (11735810_at) / Fold change /veh A4GNT (11735810_at) / RFU PRB3 (11715151_x_at) / Fold change /veh PRB3 (11715151_x_at) / RFU TUBB4B (11761932_at) / Fold change /veh TUBB4B (11761932_at) / RFU CAPN14 (11732068_a_at) / Fold change /veh CAPN14 (11732068_a_at) / RFU TMCC2 (11721928_a_at) / Fold change /veh TMCC2 (11721928_a_at) / RFU IRGQ (11745062_a_at) / Fold change /veh IRGQ (11745062_a_at) / RFU FAM174B (11720279_a_at) / Fold change /veh FAM174B (11720279_a_at) / RFU TMPRSS4 (11748680_a_at) / Fold change /veh TMPRSS4 (11748680_a_at) / RFU FAM212B (11763350_a_at) / Fold change /veh FAM212B (11763350_a_at) / RFU PLEKHG5 (11743358_a_at) / Fold change /veh PLEKHG5 (11743358_a_at) / RFU ZSCAN30 (11745921_a_at) / Fold change /veh ZSCAN30 (11745921_a_at) / RFU CMKLR1 (11741424_a_at) / Fold change /veh CMKLR1 (11741424_a_at) / RFU LOC101060620 /// MAPK8IP1 (11723275_at) / Fold change /veh LOC101060620 /// MAPK8IP1 (11723275_at) / RFU SPTSSB (11747773_x_at) / Fold change /veh SPTSSB (11747773_x_at) / RFU PRSS12 (11739890_at) / Fold change /veh PRSS12 (11739890_at) / RFU BIN1 (11741810_x_at) / Fold change /veh BIN1 (11741810_x_at) / RFU WNT11 (11732464_a_at) / Fold change /veh WNT11 (11732464_a_at) / RFU C10orf10 (11716521_a_at) / Fold change /veh C10orf10 (11716521_a_at) / RFU C5orf56 (11738089_at) / Fold change /veh C5orf56 (11738089_at) / RFU CYB561 (11721691_x_at) / Fold change /veh CYB561 (11721691_x_at) / RFU ANKRD19P (11752326_a_at) / Fold change /veh ANKRD19P (11752326_a_at) / RFU OR2T12 /// OR2T33 /// OR2T8 (11738714_s_at) / Fold change /veh OR2T12 /// OR2T33 /// OR2T8 (11738714_s_at) / RFU VCAN (11748164_a_at) / Fold change /veh VCAN (11748164_a_at) / RFU JSRP1 (11732532_at) / Fold change /veh JSRP1 (11732532_at) / RFU KRTAP10-11 (11738290_x_at) / Fold change /veh KRTAP10-11 (11738290_x_at) / RFU MYO3A (11730013_a_at) / Fold change /veh MYO3A (11730013_a_at) / RFU EBF3 (11725865_a_at) / Fold change /veh EBF3 (11725865_a_at) / RFU CAMK2N1 (11719241_x_at) / Fold change /veh CAMK2N1 (11719241_x_at) / RFU C5orf56 (11738088_a_at) / Fold change /veh C5orf56 (11738088_a_at) / RFU OLFML3 (11715873_a_at) / Fold change /veh OLFML3 (11715873_a_at) / RFU LOC100653217 /// NTM (11731650_a_at) / Fold change /veh LOC100653217 /// NTM (11731650_a_at) / RFU MAPK11 (11762145_a_at) / Fold change /veh MAPK11 (11762145_a_at) / RFU FIZ1 (11724087_x_at) / Fold change /veh FIZ1 (11724087_x_at) / RFU OASL (11726364_x_at) / Fold change /veh OASL (11726364_x_at) / RFU SOX15 (11748057_x_at) / Fold change /veh SOX15 (11748057_x_at) / RFU CD79A (11719716_a_at) / Fold change /veh CD79A (11719716_a_at) / RFU HIST1H1D (11736915_at) / Fold change /veh HIST1H1D (11736915_at) / RFU CASKIN2 (11723855_a_at) / Fold change /veh CASKIN2 (11723855_a_at) / RFU LOC730098 (11760151_x_at) / Fold change /veh LOC730098 (11760151_x_at) / RFU OR4N2 (11742367_at) / Fold change /veh OR4N2 (11742367_at) / RFU PRRT2 (11749266_a_at) / Fold change /veh PRRT2 (11749266_a_at) / RFU SNX32 (11753110_a_at) / Fold change /veh SNX32 (11753110_a_at) / RFU CDHR5 (11726645_a_at) / Fold change /veh CDHR5 (11726645_a_at) / RFU RCAN1 (11760418_a_at) / Fold change /veh RCAN1 (11760418_a_at) / RFU FAM167A (11723789_a_at) / Fold change /veh FAM167A (11723789_a_at) / RFU FAM26E (11764081_at) / Fold change /veh FAM26E (11764081_at) / RFU ISYNA1 (11749810_s_at) / Fold change /veh ISYNA1 (11749810_s_at) / RFU ACY1 (11761880_at) / Fold change /veh ACY1 (11761880_at) / RFU 11764098_at / Fold change /veh 11764098_at / RFU SAMD14 (11745864_x_at) / Fold change /veh SAMD14 (11745864_x_at) / RFU NPB (11741838_a_at) / Fold change /veh NPB (11741838_a_at) / RFU TMPRSS6 (11731388_a_at) / Fold change /veh TMPRSS6 (11731388_a_at) / RFU KRTAP10-2 (11738614_at) / Fold change /veh KRTAP10-2 (11738614_at) / RFU ARHGAP8 /// PRR5-ARHGAP8 (11727945_x_at) / Fold change /veh ARHGAP8 /// PRR5-ARHGAP8 (11727945_x_at) / RFU KRTAP5-7 /// NADSYN1 (11734609_at) / Fold change /veh KRTAP5-7 /// NADSYN1 (11734609_at) / RFU RASL12 (11751679_a_at) / Fold change /veh RASL12 (11751679_a_at) / RFU CDKN2B (11736163_a_at) / Fold change /veh CDKN2B (11736163_a_at) / RFU PRF1 (11729649_at) / Fold change /veh PRF1 (11729649_at) / RFU, ZNF638 /// ZNF638-IT1 / Fold change vs veh, ZNF638 /// ZNF638-IT1 / RFU, PANK3 / Fold change vs veh, PANK3 / RFU, SH3YL1 / Fold change vs veh, SH3YL1 / RFU, ZEB2 / Fold change vs veh, ZEB2 / RFU, NRIP1 / Fold change vs veh, NRIP1 / RFU, PTTG1IP / Fold change vs veh, PTTG1IP / RFU, CAPN2 / Fold change vs veh, CAPN2 / RFU, MED14 / Fold change vs veh, MED14 / RFU, SNORA58 / Fold change vs veh, SNORA58 / RFU, C1orf63 / Fold change vs veh, C1orf63 / RFU, LRRFIP1 / Fold change vs veh, LRRFIP1 / RFU, NDUFAF7 / Fold change vs veh, NDUFAF7 / RFU, SLC12A2 / Fold change vs veh, SLC12A2 / RFU, IBTK / Fold change vs veh, IBTK / RFU, ESF1 / Fold change vs veh, ESF1 / Fold change vs veh, TMEM50B / RFU, TAOK1 / Fold change vs veh, TAOK1 / RFU, ACBD3 / Fold change vs veh, ACBD3 / RFU, TMA16 / Fold change vs veh, TMA16 / RFU, RWDD3 / Fold change vs veh, RWDD3 / RFU, BCAT1 / Fold change vs veh, BCAT1 / RFU, EDEM3 / Fold change vs veh, EDEM3 / RFU, TMEM33 / Fold change vs veh, TMEM33 / RFU, WDR75 / Fold change vs veh, WDR75 / RFU, AHCTF1 / Fold change vs veh, AHCTF1 / RFU, TFRC / Fold change vs veh, TFRC / RFU, ZDHHC17 / Fold change vs veh, ZDHHC17 / RFU, NOM1 / Fold change vs veh, NOM1 / RFU, ARL8B / Fold change vs veh, ARL8B / RFU, ZBTB11 / Fold change vs veh, ZBTB11 / RFU, TAMM41 / Fold change vs veh, TAMM41 / RFU, KIAA1704 /// LOC100996395 / Fold change vs veh, KIAA1704 /// LOC100996395 / RFU, ING1 / Fold change vs veh, ING1 / RFU, TRMT61B / Fold change vs veh, TRMT61B / RFU, FUBP3 / Fold change vs veh, FUBP3 / RFU, TP53 / Fold change vs veh, TP53 / RFU, TNKS2 / Fold change vs veh, TNKS2 / RFU, ZFP14 / Fold change vs veh, ZFP14 / RFU, ACTR2 / Fold change vs veh, ACTR2 / RFU, PPP3R1 / Fold change vs veh, PPP3R1 / RFU, PIK3R1 / Fold change vs veh, PIK3R1 / RFU, HNRNPA1 / Fold change vs veh, HNRNPA1 / RFU, RNF170 / Fold change vs veh, RNF170 / RFU, ZNF28 / Fold change vs veh, ZNF28 / RFU, RNGTT / Fold change vs veh, RNGTT / RFU, OGT / Fold change vs veh, OGT / RFU, BRD1 / Fold change vs veh, BRD1 / RFU, MARS / Fold change vs veh, MARS / RFU, ZNF655 / Fold change vs veh, ZNF655 / RFU, FAHD1 / Fold change vs veh, FAHD1 / RFU, BDP1 / Fold change vs veh, BDP1 / RFU, LRRCC1 / Fold change vs veh, LRRCC1 / RFU, ARID1A / Fold change vs veh, ARID1A / RFU, ZNF146 / Fold change vs veh, ZNF146 / RFU, ZNF330 / Fold change vs veh, ZNF330 / RFU, GPN3 / Fold change vs veh, GPN3 / RFU, C9orf123 / Fold change vs veh, C9orf123 / RFU, N4BP2L2 / Fold change vs veh, N4BP2L2 / RFU, ARFIP1 / Fold change vs veh, ARFIP1 / RFU, FAM179B / Fold change vs veh, FAM179B / RFU, BCL10 / Fold change vs veh, BCL10 / RFU, UHRF1BP1L / Fold change vs veh, UHRF1BP1L / RFU, BET1 / Fold change vs veh, BET1 / RFU, CNOT2 / Fold change vs veh, CNOT2 / RFU, ZNF268 / Fold change vs veh, ZNF268 / Fold change vs veh, ZNF507 / RFU, DGCR2 / Fold change vs veh, DGCR2 / RFU, WDSUB1 / Fold change vs veh, WDSUB1 / Fold change vs veh, HSP90B1 /// MIR3652 / RFU, ADSS / Fold change vs veh, ADSS / RFU, GK / Fold change vs veh, GK / RFU, ZNF148 / Fold change vs veh, ZNF148 / RFU, TAF9 / Fold change vs veh, TAF9 / RFU, SLC1A5 / Fold change vs veh, SLC1A5 / RFU, SLMO2 / Fold change vs veh, SLMO2 / RFU, ABCC4 / Fold change vs veh, ABCC4 / RFU, LOC101060439 /// RAP1B / Fold change vs veh, LOC101060439 /// RAP1B / RFU, RFX7 / Fold change vs veh, RFX7 / RFU, GTPBP10 / Fold change vs veh, GTPBP10 / RFU, CNEP1R1 / Fold change vs veh, CNEP1R1 / RFU, BIVM-ERCC5 /// ERCC5 / Fold change vs veh, BIVM-ERCC5 /// ERCC5 / RFU, ILF3 / Fold change vs veh, ILF3 / RFU 11762660_at / Fold change /veh 11762660_at / RFU VCAN (11757783_s_at) / Fold change /veh VCAN (11757783_s_at) / RFU DDX43 (11728927_at) / Fold change /veh DDX43 (11728927_at) / RFU KRT8 (11758188_x_at) / Fold change /veh KRT8 (11758188_x_at) / RFU NKD1 (11759106_at) / Fold change /veh NKD1 (11759106_at) / RFU SRD5A1 (11742802_a_at) / Fold change /veh SRD5A1 (11742802_a_at) / RFU TPSAB1 /// TPSB2 (11721975_s_at) / Fold change /veh TPSAB1 /// TPSB2 (11721975_s_at) / RFU GSTM3 (11746129_a_at) / Fold change /veh GSTM3 (11746129_a_at) / RFU IL23R (11737362_x_at) / Fold change /veh IL23R (11737362_x_at) / RFU TMEM51 (11727254_a_at) / Fold change /veh TMEM51 (11727254_a_at) / RFU PIWIL2 (11732686_x_at) / Fold change /veh PIWIL2 (11732686_x_at) / RFU ORM1 (11744905_x_at) / Fold change /veh ORM1 (11744905_x_at) / RFU CCDC152 (11743942_at) / Fold change /veh CCDC152 (11743942_at) / RFU ECM1 (11717891_a_at) / Fold change /veh ECM1 (11717891_a_at) / RFU IL23R (11748794_a_at) / Fold change /veh IL23R (11748794_a_at) / RFU TNFAIP8L3 (11732012_x_at) / Fold change /veh TNFAIP8L3 (11732012_x_at) / RFU MBOAT4 (11741988_at) / Fold change /veh MBOAT4 (11741988_at) / RFU 11764193_at / Fold change /veh 11764193_at / RFU TMEM53 (11763286_at) / Fold change /veh TMEM53 (11763286_at) / RFU MAGEB2 (11727129_at) / Fold change /veh MAGEB2 (11727129_at) / RFU TMEM200A (11744735_a_at) / Fold change /veh TMEM200A (11744735_a_at) / RFU CCDC152 (11751479_a_at) / Fold change /veh CCDC152 (11751479_a_at) / RFU FAM211A (11726209_a_at) / Fold change /veh FAM211A (11726209_a_at) / RFU RGS16 (11746705_a_at) / Fold change /veh RGS16 (11746705_a_at) / RFU VCAN (11755009_s_at) / Fold change /veh VCAN (11755009_s_at) / RFU RHOB (11743442_s_at) / Fold change /veh RHOB (11743442_s_at) / RFU RGS16 (11720943_a_at) / Fold change /veh RGS16 (11720943_a_at) / RFU RGS16 (11720944_at) / Fold change /veh RGS16 (11720944_at) / RFU, VPS4B / Fold change vs veh, VPS4B / RFU, CREB1 / Fold change vs veh, CREB1 / RFU, DNAJC13 / Fold change vs veh, DNAJC13 / RFU, GNAQ / Fold change vs veh, GNAQ / RFU, CDK5R1 / Fold change vs veh, CDK5R1 / RFU, ZRANB3 / Fold change vs veh, ZRANB3 / RFU, CUL4A / Fold change vs veh, CUL4A / RFU, CCNY / Fold change vs veh, CCNY / RFU, UFL1 / Fold change vs veh, UFL1 / RFU, COG3 / Fold change vs veh, COG3 / RFU, DIAPH2 / Fold change vs veh, DIAPH2 / RFU, SKA2 / Fold change vs veh, SKA2 / RFU, AFF3 / Fold change vs veh, AFF3 / RFU, LMF1 / Fold change vs veh, LMF1 / RFU, IPO11 / Fold change vs veh, IPO11 / RFU, DFFB / Fold change vs veh, DFFB / RFU, FOXP1 / Fold change vs veh, FOXP1 / RFU, CARD8 / Fold change vs veh, CARD8 / RFU, STRN3 / Fold change vs veh, STRN3 / RFU, ADK / Fold change vs veh, ADK / RFU, RASSF2 / Fold change vs veh, RASSF2 / RFU, WIPF1 / Fold change vs veh, WIPF1 / RFU, LARP1B / Fold change vs veh, LARP1B / RFU, RASA1 / Fold change vs veh, RASA1 / RFU, RB1 / Fold change vs veh, RB1 / RFU, PPFIA1 / Fold change vs veh, PPFIA1 / RFU, MAT2A / Fold change vs veh, MAT2A / RFU, CCT5 / Fold change vs veh, CCT5 / RFU, WDR92 / Fold change vs veh, WDR92 / RFU, CUX1 / Fold change vs veh, CUX1 / RFU, TTC7A / Fold change vs veh, TTC7A / RFU, TMEM135 / Fold change vs veh, TMEM135 / RFU, DEPTOR / Fold change vs veh, DEPTOR / RFU, CPM / Fold change vs veh, CPM / RFU, DNAJB6 / Fold change vs veh, DNAJB6 / RFU, CACNA2D3 / Fold change vs veh, CACNA2D3 / RFU, DTX4 / Fold change vs veh, DTX4 / RFU, TFCP2 / Fold change vs veh, TFCP2 / RFU, GMCL1 /// GMCL1P1 / Fold change vs veh, GMCL1 /// GMCL1P1 / RFU, AEBP2 / Fold change vs veh, AEBP2 / RFU, SNHG1 /// SNORD22 /// SNORD25 /// SNORD26 /// SNORD27 /// SNORD28 /// SNORD29 /// SNORD31 / Fold change vs veh, SNHG1 /// SNORD22 /// SNORD25 /// SNORD26 /// SNORD27 /// SNORD28 /// SNORD29 /// SNORD31 / Fold change (Aza/veh), C12orf56 (ProbeSet 11735607_a_at) / Fold change (ACY-1035/veh), C12orf56 (ProbeSet 11735607_a_at) / Fold change (Aza/veh), FGFR1OP (ProbeSet 11751329_s_at) / Fold change (ACY-1035/veh), FGFR1OP (ProbeSet 11751329_s_at) / Fold change (Aza/veh), VPS36 (ProbeSet 11739960_a_at) / Fold change (ACY-1035/veh), VPS36 (ProbeSet 11739960_a_at) / RFU SYPL1 (11715823_x_at) / Fold change /veh SYPL1 (11715823_x_at) / RFU IGFBP7 (11715501_s_at) / Fold change /veh IGFBP7 (11715501_s_at) / RFU REEP3 (11722064_at) / Fold change /veh REEP3 (11722064_at) / RFU IGLL1 (11728026_x_at) / Fold change /veh IGLL1 (11728026_x_at): dose or concentration left out as unconfirmed
Conditions: MV-4-11 cells, 48 hours

Compound: Nc1ccc(-c2cccs2)cc1NC(=O)c1ccc2c(c1)cc(C1CC1)n2CCN1CCOCC1 [ACY-1035]
- Fold change /veh OR2T12 /// OR2T33 /// OR2T8 (11738714_s_at): 1.06
